# From patent US20250332154A1, “USE OF NAPHTHOQUINE PHOSPHATE IN PREPARATION OF A MEDICAMENT FOR TREATING AUTOIMMUNE DISEASES” (SHANGHAI PHARMACEUTICALS INDUSTRY CO., LTD, priority 2022, published 2025)
# Tests used:
# [1] = Non-specific cytotoxicity assay (MTT), mouse spleen lymphocytes; type: cell-based; conditions: BALB/c, mouse, mouse whole spleen lymphocytes
# Description: BALB/c mice were sacrificed by cervical dislocation, and spleens were aseptically excised to prepare whole spleen lymphocytes. The cells were adjusted to the required concentration. The compound concentrations started at 250 μM and was diluted with a 4-fold gradient to obtain 10 concentrations: 250, 62.5, 15.625, 3.906, 0.977, 0.244, 0.061, 0.015, 0.004 and 0.001 μM.
# A suspension of mouse spleen lymphocytes was inoculated into a 96-well plate at 8×10^5/well, and the above 10 concentration gradients of the compound were added. A corresponding cell control (i.e. spleen lymphocyte culture system without compound) and a RPMI 1640 culture medium background control (blank culture medium control) were set up. The cells were cultured in a 37° C., 5% CO2 incubator for 48 hours. Four hours before the end of the culture, 20 μl of 5 mg/ml MTT solution was added, and the reaction continued until the end of the culture (i.e. the aforementioned 48 hours). The supernatant was aspirated and discarded, 200 μl DMSO was added to each well to dissolve the crystals. […]. The absorbance value was measured at […] with a microplate reader (Spectra Max 190, Molecular Devices).
# [2] = tested on: mouse whole spleen lymphocytes (ConA-induced T cell activation and proliferation); assay: ConA-induced lymphocyte proliferation assay (3H-thymidine); type: cell-based; conditions: Mus musculus, Lymphocyte, read-out: ConA IC50
# Description: (§1) BALB/c mice were sacrificed by cervical dislocation, and spleens were aseptically excised to prepare whole spleen lymphocytes. The cells were adjusted to the required concentration.
# (§2) A suspension of mouse spleen lymphocytes was inoculated into a 96-well plate at 5×10^5/well, and ConA (final concentration: 1 μg/ml) or LPS (final concentration: 10 μg/ml) and the above 10 concentration gradients of the compound were added. Corresponding cell control wells without ConA and LPS, as well as medicament-free stimulated control wells, were set up. The cells were cultured in a 37° C., 5% CO2 incubator for 48 hours. Eight hours before the end of the culture, ^3H-thymidine was added, and the culture continued until the end of the experiment (i.e., the aforementioned 48 hours). The cells were collected onto glass fiber membranes using a cell collector.
# (§3) ConA and LPS, as mitogens, stimulated proliferation and differentiation of T and B lymphocytes, respectively. This process is similar to the activation process of lymphocytes in vivo. Therefore, mitogen-induced lymphocyte proliferation is commonly used as an indicator to evaluate functionality of lymphocytes.
# [3] = tested on: mouse whole spleen lymphocytes (LPS-induced B cell activation and proliferation); assay: LPS-induced lymphocyte proliferation assay (3H-thymidine); type: cell-based; conditions: Mus musculus, Lymphocyte, read-out: LPS IC50
# Description: as §1, §2, §3
# RAW264.7 cells = assay: Non-specific cytotoxicity assay (MTT), RAW264.7; type: cell-based, mouse; conditions: 48 hours
# Description: RAW264.7 cells were inoculated into a 96-well plate at 1×10^5/well and allowed to adhere to the wall for 6 hours in a 37° C., 5% CO2 incubator. […] A corresponding solvent control (cell control) and a culture medium background control (blank control) were set up. The cells were cultured in a 37° C., 5% CO2 incubator for 48 hours. Fifteen minutes before the end of the culture, 20 μl of 5 mg/ml MTT was added. At the end of the culture, the supernatant was aspirated and discarded, 200 μl DMSO was added to dissolve the crystals.
# TNF-α = TNF-α production by LPS-induced RAW264.7 cells (ELISA); type: cell-based, mouse
# Description: (§4) RAW264.7 cells were inoculated into a 96-well plate at 1×10^5/well and allowed to adhere to the wall for 6 hours in a 37° C., 5% CO2 incubator. […] After the cells adhered to the wall, the stimulant LPS (final concentration: 10 μg/ml) and the gradient-diluted compounds were added. A corresponding stimulation control and a cell control (without stimulation) were set up. After the end of the culture, the cell culture supernatants were collected, and the levels of TNF-α, IL-1β and IL-6 were measured by ELISA.
# IL-1β = IL-1β production by LPS-induced RAW264.7 cells (ELISA); type: cell-based, mouse
# Description: as §4
# IL-6 = IL-6 production by LPS-induced RAW264.7 cells (ELISA); type: cell-based, mouse
# Description: as §4
Compound,CC50 at 48 h [1],IC50 [2],IC50 [3],CC50 (RAW264.7 cells),"IC50 (TNF-α; LPS 10 μg/ml, RAW264.7)","production of TNF-α (TNF-α; LPS-induced RAW264.7, in words)","IC50 (IL-1β; LPS 10 μg/ml, RAW264.7, read-out: IB-1β IC50)","production of LPS-induced IL-1β (IL-1β; RAW264.7, in words)","IC50 (IL-6; LPS 10 μg/ml, RAW264.7)","production of IL-6 (IL-6; LPS-induced RAW264.7, in words)"
CCN(CC)CCCC(C)Nc1ccnc2cc(Cl)ccc12 (stereo not shown) [Chloroquine Phosphate],26.9 µM,14.3 µM,15.1 µM,,,,,,,
Chloroquine Sulfate,,,,26.6 µM,32.6 µM,no significant effect,2.72 µM,significantly inhibited,14.7 µM,no significant effect
